Assay: Inhibition of HSP90

CCNC(=O)c1n[nH]c(-c2cc(Cl)c(O)cc2O)c1-c1ccc(OC)cc1
IC50: 0.025 µM

CCc1cc(-c2[nH]nc(C)c2-c2ccc3c(c2)OCCO3)c(O)cc1O
IC50: 9 µM

Source: ChEMBL document CHEMBL1240319, “New approaches to molecular cancer therapeutics” (Nat Chem Biol, 2006)
